In ChEMBL document CHEMBL1201861, “Genomics of Drug Sensitity in Cancer screening data, Wellcome Trust Sanger Institute”:

How the values were obtained:
Test in all cases: cells
HuO-3N1 = type: functional, cell-based, Homo sapiens; conditions: Homo sapiens, HuO-3N1;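 note: cell viability readout used to measure how strongly compounds suppress proliferation of human HuO-3N1 cells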
Description: SANGER: Inhibition of human HuO-3N1 cell growth in a cell viability assay.

MEG-01 = type: functional, cell-based; conditions: Homo sapiens;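 note: growth inhibition of MEG-01 cells, read out by a cell viability assay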
Description: SANGER: Inhibition of human MEG-01 cell growth in a cell viability assay.

CAL-51 = type: functional, cell-based, Homo sapiens; conditions: Homo sapiens, CAL-51;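 note: human CAL-51 cell line, growth inhibition read out via a cell viability assay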
Description: SANGER: Inhibition of human CAL-51 cell growth in a cell viability assay.

HO-1-N-1 = type: functional, cell-based, Homo sapiens; conditions: Homo sapiens, HO-1-N-1;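 note: growth inhibition of human HO-1-N-1 cells, read out with a cell viability assay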
Description: SANGER: Inhibition of human HO-1-N-1 cell growth in a cell viability assay.

KE-37 = type: functional, cell-based; conditions: Homo sapiens;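 note: growth inhibition of KE-37 cells, read out with a cell viability assay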
Description: SANGER: Inhibition of human KE-37 cell growth in a cell viability assay.

SK-MEL-24 = type: functional, cell-based; conditions: Homo sapiens;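 note: growth inhibition read out by a cell viability assay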
Description: SANGER: Inhibition of human SK-MEL-24 cell growth in a cell viability assay.

SW-620 = type: functional, cell-based, Homo sapiens; conditions: Homo sapiens, SW-620;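 note: growth inhibition of human SW-620 cells, measured by a cell viability assay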
Description: SANGER: Inhibition of human SW620 cell growth in a cell viability assay.

DEL = type: functional, cell-based; conditions: Homo sapiens;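 note: growth inhibition of the human DEL cell line, read out with a cell viability assay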
Description: SANGER: Inhibition of human DEL cell growth in a cell viability assay.

KNS-42 = type: functional, cell-based, Homo sapiens; conditions: Homo sapiens, KNS-42;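 note: growth inhibition of KNS-42 cells, read out with a cell viability assay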
Description: SANGER: Inhibition of human KNS-42 cell growth in a cell viability assay.

SBC-1 = type: functional, cell-based; conditions: Homo sapiens;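 note: cell viability assay measuring growth inhibition of the SBC-1 cell line, IC50 being the concentration that halves growth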
Description: SANGER: Inhibition of human SBC-1 cell growth in a cell viability assay.

A498 = type: functional, cell-based, Homo sapiens; conditions: Homo sapiens, A498;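 note: growth inhibition of human A498 cells, read out with a cell viability assay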
Description: SANGER: Inhibition of human A498 cell growth in a cell viability assay.

C3A = type: functional, cell-based, Homo sapiens; conditions: Homo sapiens, C3A;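 note: growth inhibition of C3A human cells, quantified with a cell viability readout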
Description: SANGER: Inhibition of human C3A cell growth in a cell viability assay.

KLE = type: functional, cell-based, Homo sapiens; conditions: Homo sapiens, KLE;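 note: growth inhibition of human KLE cells, read out with a cell viability assay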
Description: SANGER: Inhibition of human KLE cell growth in a cell viability assay.

ETK-1 = type: functional, cell-based, Homo sapiens; conditions: Homo sapiens, ETK-1;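 note: growth inhibition of human ETK-1 cells, read out with a cell viability assay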
Description: SANGER: Inhibition of human ETK-1 cell growth in a cell viability assay.

NCI-H2126 = type: functional, cell-based, Homo sapiens; conditions: Homo sapiens, NCI-H2126;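 note: growth inhibition of the cancer cell line, determined with a cell viability readout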
Description: SANGER: Inhibition of human NCI-H2126 cell growth in a cell viability assay.

SNU-449 = type: functional, cell-based, Homo sapiens; conditions: Homo sapiens, SNU-449
Description: SANGER: Inhibition of human SNU-449 cell growth in a cell viability assay.

HT-3 = type: functional, cell-based, Homo sapiens; conditions: Homo sapiens, HT-3;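 note: growth inhibition measured with a cell viability readout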
Description: SANGER: Inhibition of human HT-3 cell growth in a cell viability assay.

SW13 = type: functional, cell-based, Homo sapiens; conditions: Homo sapiens, SW13;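 note: IC50 is inhibition of SW13 cell growth, read out with a cell viability assay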
Description: SANGER: Inhibition of human SW13 cell growth in a cell viability assay.

8305C = type: functional, cell-based, Homo sapiens; conditions: Homo sapiens, 8305C
Description: SANGER: Inhibition of human 8305C cell growth in a cell viability assay.

YKG-1 = type: functional, cell-based, Homo sapiens; conditions: Homo sapiens, YKG-1;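 note: cell growth inhibition, read out with a viability assay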
Description: SANGER: Inhibition of human YKG-1 cell growth in a cell viability assay.

ES4 = type: functional, cell-based, Homo sapiens; conditions: Homo sapiens, ES4;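 note: growth inhibition of human ES4 cells, read out by a cell viability assay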
Description: SANGER: Inhibition of human ES4 cell growth in a cell viability assay.

NCI-H526 = type: functional, cell-based; conditions: Homo sapiens;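 note: growth inhibition of the human NCI-H526 cell line, measured by a cell viability assay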
Description: SANGER: Inhibition of human NCI-H526 cell growth in a cell viability assay.

NCI-H520 = type: functional, cell-based, Homo sapiens; conditions: Homo sapiens, NCI-H520;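 note: growth inhibition of NCI-H520 cells, measured by a cell viability assay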
Description: SANGER: Inhibition of human NCI-H520 cell growth in a cell viability assay.

CAL-27 = type: functional, cell-based, Homo sapiens; conditions: Homo sapiens, CAL-27;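 note: Viability-based readout, IC50 reflecting inhibition of CAL-27 cell growth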
Description: SANGER: Inhibition of human CAL-27 cell growth in a cell viability assay.

IST-MEL1 = type: functional, cell-based, Homo sapiens; conditions: Homo sapiens, IST-MEL1;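 note: growth inhibition of the cell line, read out with a cell viability assay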
Description: SANGER: Inhibition of human IST-MEL1 cell growth in a cell viability assay.

COLO-679 = type: functional, cell-based, Homo sapiens; conditions: Homo sapiens, COLO-679
Description: SANGER: Inhibition of human COLO-679 cell growth in a cell viability assay.

EW-13 = type: functional, cell-based; conditions: Homo sapiens;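 note: growth inhibition of EW-13 cells, read out with a cell viability assay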
Description: SANGER: Inhibition of human EW-13 cell growth in a cell viability assay.

MZ1-PC = type: functional, cell-based, Homo sapiens; conditions: Homo sapiens, MZ1-PC;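 note: cell viability assay measuring growth inhibition of human MZ1-PC cells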
Description: SANGER: Inhibition of human MZ1-PC cell growth in a cell viability assay.

T98G = type: functional, cell-based, Homo sapiens; conditions: Homo sapiens, T98G;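 note: growth inhibition of T98G cells, read out by a cell viability assay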
Description: SANGER: Inhibition of human T98G cell growth in a cell viability assay.

Detroit 562 = type: functional, cell-based, Homo sapiens; conditions: Homo sapiens, Detroit 562;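 note: growth inhibition of human Detroit 562 cells, read out by a cell viability assay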
Description: SANGER: Inhibition of human Detroit562 cell growth in a cell viability assay.

LU-99A = type: functional, cell-based, Homo sapiens; conditions: Homo sapiens, LU-99A;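 note: growth inhibition of LU-99A cells, read out with a cell viability assay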
Description: SANGER: Inhibition of human LU-99A cell growth in a cell viability assay.

VM-CUB-1 = type: functional, cell-based; conditions: Homo sapiens;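 note: cell viability assay measuring growth inhibition of the human VM-CUB-1 cell line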
Description: SANGER: Inhibition of human VM-CUB-1 cell growth in a cell viability assay.

MHH-ES-1 = type: functional, cell-based, Homo sapiens; conditions: Homo sapiens, MHH-ES-1;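 note: cell growth inhibition measured by a cell viability assay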
Description: SANGER: Inhibition of human MHH-ES-1 cell growth in a cell viability assay.

BHT-101 = type: functional, cell-based, Homo sapiens; conditions: Homo sapiens, BHT-101
Description: SANGER: Inhibition of human BHT-101 cell growth in a cell viability assay.

BB30-HNC = type: functional, cell-based, Homo sapiens; conditions: Homo sapiens, BB30-HNC;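 note: growth inhibition of the cultured cell line, read out by a cell viability assay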
Description: SANGER: Inhibition of human BB30-HNC cell growth in a cell viability assay.

C-33-A = type: functional, cell-based, Homo sapiens; conditions: Homo sapiens, C-33-A;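 note: cell viability assay measuring growth inhibition of C-33-A cells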
Description: SANGER: Inhibition of human C-33-A cell growth in a cell viability assay.

MHH-PREB-1 = type: functional, cell-based; conditions: Homo sapiens;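 note: cell viability assay measuring inhibition of proliferation of human MHH-PREB-1 cells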
Description: SANGER: Inhibition of human MHH-PREB-1 cell growth in a cell viability assay.

LS-513 = type: functional, cell-based, Homo sapiens; conditions: Homo sapiens, LS-513
Description: SANGER: Inhibition of human LS-513 cell growth in a cell viability assay.

ES8 = type: functional, cell-based, Homo sapiens; conditions: Homo sapiens, ES8;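 note: growth inhibition of human ES8 cells, read out with a cell viability assay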
Description: SANGER: Inhibition of human ES8 cell growth in a cell viability assay.

CAL-62 = type: functional, cell-based, Homo sapiens; conditions: Homo sapiens, CAL-62;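 note: growth inhibition of CAL-62 cells, read out with a cell viability assay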
Description: SANGER: Inhibition of human CAL-62 cell growth in a cell viability assay.

NCI-H1693 = type: functional, cell-based, Homo sapiens; conditions: Homo sapiens, NCI-H1693;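 note: growth inhibition of the human cell line, read out with a cell viability assay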
Description: SANGER: Inhibition of human NCI-H1693 cell growth in a cell viability assay.

CHP-212 = type: functional, cell-based, Homo sapiens; conditions: Homo sapiens, CHP-212
Description: SANGER: Inhibition of human CHP-212 cell growth in a cell viability assay.

LC-2-ad = type: functional, cell-based, Homo sapiens; conditions: Homo sapiens, LC-2-ad;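 note: growth inhibition of human LC-2-ad cells, read out with a cell viability assay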
Description: SANGER: Inhibition of human LC-2-ad cell growth in a cell viability assay.

BB49-HNC = type: functional, cell-based, Homo sapiens; conditions: Homo sapiens, BB49-HNC;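 note: cell viability assay read-out, reported as inhibition of BB49-HNC cell growth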
Description: SANGER: Inhibition of human BB49-HNC cell growth in a cell viability assay.

LOX IMVI = type: functional, cell-based; conditions: Homo sapiens
Description: SANGER: Inhibition of human LOXIMVI cell growth in a cell viability assay.

DB = type: functional, cell-based; conditions: Homo sapiens
Description: SANGER: Inhibition of human DB cell growth in a cell viability assay.

KYSE-410 = type: functional, cell-based, Homo sapiens; conditions: Homo sapiens, KYSE-410;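 note: growth inhibition of KYSE-410 cells, measured through a cell viability readout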
Description: SANGER: Inhibition of human KYSE-410 cell growth in a cell viability assay.

KYSE-70 cell line = type: functional, cell-based, Homo sapiens; conditions: Homo sapiens, KYSE-70;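 note: cell viability assay read-out, with IC50 expressing suppression of KYSE-70 cell growth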
Description: SANGER: Inhibition of human KYSE-70 cell growth in a cell viability assay.

A2780 = type: functional, cell-based, Homo sapiens; conditions: Homo sapiens, A2780;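 note: growth inhibition of A2780 cells, read out with a cell viability assay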
Description: SANGER: Inhibition of human A2780 cell growth in a cell viability assay.

NB5 = type: functional, cell-based, Homo sapiens; conditions: Homo sapiens, NB5;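 note: growth inhibition of NB5 cells, read out as cell viability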
Description: SANGER: Inhibition of human NB5 cell growth in a cell viability assay.

SW48 = type: functional, cell-based, Homo sapiens; conditions: Homo sapiens, SW48;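 note: growth inhibition of SW48 cells, read out with a cell viability assay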
Description: SANGER: Inhibition of human SW48 cell growth in a cell viability assay.

MKN-28 = type: functional, cell-based, Homo sapiens; conditions: Homo sapiens, MKN-28;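 note: cell viability assay read-out, IC50 reflects suppression of growth of human MKN-28 cells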
Description: SANGER: Inhibition of human MKN28 cell growth in a cell viability assay.

SMILES: C=CCNC1=C2C[C@@H](C)C[C@H](OC)[C@H](O)[C@@H](C)/C=C(\C)[C@H](OC(N)=O)[C@@H](OC)/C=C\C=C(/C)C(=O)NC(=CC1=O)C2=O [TANESPIMYCIN]
- IC50 (HuO-3N1): 52.4 nM
- IC50 (MEG-01): > 1000 nM
- IC50 (CAL-51): 14 nM
- IC50 (HO-1-N-1): 40.2 nM
- IC50 (KE-37): > 1000 nM
- IC50 (SK-MEL-24): 139 nM
- IC50 (SW-620): 70.3 nM
- IC50 (DEL): 185 nM
- IC50 (KNS-42): > 1000 nM
- IC50 (SBC-1): 267 nM
- IC50 (A498): 102 nM
- IC50 (C3A): 454 nM
- IC50 (KLE): > 1000 nM
- IC50 (ETK-1): 159 nM
- IC50 (NCI-H2126): 568 nM
- IC50 (SNU-449): > 1000 nM
- IC50 (HT-3): 482 nM
- IC50 (SW13): > 1000 nM
- IC50 (8305C): 725 nM
- IC50 (YKG-1): 50.7 nM
- IC50 (ES4): > 1000 nM
- IC50 (NCI-H526): > 1000 nM
- IC50 (NCI-H520): 387 nM
- IC50 (CAL-27): 190 nM
- IC50 (IST-MEL1): < 3.91 nM
- IC50 (COLO-679): 112 nM
- IC50 (EW-13): > 1000 nM
- IC50 (MZ1-PC): > 1000 nM
- IC50 (T98G): 41 nM
- IC50 (Detroit 562): 42.4 nM
- IC50 (LU-99A): 62.4 nM
- IC50 (VM-CUB-1): 36.6 nM
- IC50 (MHH-ES-1): 237 nM
- IC50 (BHT-101): > 1000 nM
- IC50 (BB30-HNC): 173 nM
- IC50 (C-33-A): > 1000 nM
- IC50 (MHH-PREB-1): > 1000 nM
- IC50 (LS-513): 240 nM
- IC50 (ES8): 308 nM
- IC50 (CAL-62): 162 nM
- IC50 (NCI-H1693): > 1000 nM
- IC50 (CHP-212): 26.3 nM
- IC50 (LC-2-ad): 141 nM
- IC50 (BB49-HNC): 42.4 nM
- IC50 (LOX IMVI): 58.7 nM
- IC50 (DB): > 1000 nM
- IC50 (KYSE-410): 47.7 nM
- IC50 (KYSE-70 cell line): 333 nM
- IC50 (A2780): 25.3 nM
- IC50 (NB5): > 1000 nM
- IC50 (SW48): 50.4 nM
- IC50 (MKN-28): 666 nM

SMILES: Cn1cncc1[C@@](N)(c1ccc(Cl)cc1)c1ccc2c(c1)c(-c1cccc(Cl)c1)cc(=O)n2C [TIPIFARNIB]
- IC50 (HuO-3N1): 4170 nM
- IC50 (MEG-01): 3610 nM
- IC50 (CAL-51): 3530 nM
- IC50 (HO-1-N-1): 10500 nM
- IC50 (KE-37): 2320 nM
- IC50 (SK-MEL-24): 1710 nM
- IC50 (SW-620): 482 nM
- IC50 (DEL): 1030 nM
- IC50 (KNS-42): 5760 nM
- IC50 (SBC-1): > 16000 nM
- IC50 (A498): > 16000 nM
- IC50 (C3A): 4640 nM
- IC50 (KLE): 8910 nM
- IC50 (ETK-1): 21.5 nM
- IC50 (NCI-H2126): > 16000 nM
- IC50 (SNU-449): 623 nM
- IC50 (HT-3): > 16000 nM
- IC50 (SW13): 3600 nM
- IC50 (8305C): 976 nM
- IC50 (YKG-1): 526 nM
- IC50 (ES4): 1280 nM
- IC50 (NCI-H526): > 16000 nM
- IC50 (NCI-H520): 2220 nM
- IC50 (CAL-27): 3100 nM
- IC50 (IST-MEL1): 2820 nM
- IC50 (COLO-679): 985 nM
- IC50 (EW-13): 6480 nM
- IC50 (MZ1-PC): 2820 nM
- IC50 (T98G): 11800 nM
- IC50 (Detroit 562): 4070 nM
- IC50 (LU-99A): 7090 nM
- IC50 (VM-CUB-1): 5760 nM
- IC50 (MHH-ES-1): 5270 nM
- IC50 (BHT-101): 3090 nM
- IC50 (BB30-HNC): 585 nM
- IC50 (C-33-A): 4490 nM
- IC50 (MHH-PREB-1): 3300 nM
- IC50 (LS-513): > 16000 nM
- IC50 (ES8): 10400 nM
- IC50 (CAL-62): 1790 nM
- IC50 (NCI-H1693): > 16000 nM
- IC50 (CHP-212): 1380 nM
- IC50 (LC-2-ad): 1490 nM
- IC50 (BB49-HNC): 5860 nM
- IC50 (LOX IMVI): > 16000 nM
- IC50 (DB): 10700 nM
- IC50 (KYSE-410): 3500 nM
- IC50 (KYSE-70 cell line): 1410 nM
- IC50 (A2780): 3300 nM
- IC50 (NB5): > 16000 nM
- IC50 (SW48): 8610 nM
- IC50 (MKN-28): 1440 nM

SMILES: CCC1=C[C@@H]2CN(C1)Cc1c([nH]c3ccccc13)[C@@](C(=O)OC)(c1cc3c(cc1OC)N(C)[C@H]1[C@@](O)(C(=O)OC)[C@H](OC(C)=O)[C@]4(CC)C=CCN5CC[C@]31[C@@H]54)C2 [VINORELBINE]
- IC50 (HuO-3N1): 13 nM
- IC50 (MEG-01): 20.8 nM
- IC50 (CAL-51): 8.61 nM
- IC50 (HO-1-N-1): 6.65 nM
- IC50 (KE-37): 4.42 nM
- IC50 (SK-MEL-24): > 64 nM
- IC50 (SW-620): 8.52 nM
- IC50 (DEL): 3.63 nM
- IC50 (KNS-42): 8.03 nM
- IC50 (SBC-1): > 64 nM
- IC50 (A498): 26.2 nM
- IC50 (C3A): > 64 nM
- IC50 (KLE): > 64 nM
- IC50 (ETK-1): 6.92 nM
- IC50 (NCI-H2126): 29.3 nM
- IC50 (SNU-449): > 64 nM
- IC50 (HT-3): > 64 nM
- IC50 (SW13): 4.72 nM
- IC50 (8305C): 4.92 nM
- IC50 (YKG-1): 3.73 nM
- IC50 (ES4): > 64 nM
- IC50 (NCI-H526): 8.68 nM
- IC50 (NCI-H520): 1.87 nM
- IC50 (CAL-27): 32 nM
- IC50 (IST-MEL1): > 64 nM
- IC50 (COLO-679): 1.83 nM
- IC50 (EW-13): 6.62 nM
- IC50 (MZ1-PC): 17.7 nM
- IC50 (T98G): 18.9 nM
- IC50 (Detroit 562): 7.55 nM
- IC50 (LU-99A): 6.24 nM
- IC50 (VM-CUB-1): 19.1 nM
- IC50 (MHH-ES-1): 3.89 nM
- IC50 (BHT-101): > 64 nM
- IC50 (BB30-HNC): 0.399 nM
- IC50 (C-33-A): 7.31 nM
- IC50 (MHH-PREB-1): 6.88 nM
- IC50 (LS-513): > 64 nM
- IC50 (ES8): 2.72 nM
- IC50 (CAL-62): 8.18 nM
- IC50 (NCI-H1693): > 64 nM
- IC50 (CHP-212): 24.6 nM
- IC50 (LC-2-ad): 4.98 nM
- IC50 (BB49-HNC): > 64 nM
- IC50 (LOX IMVI): > 64 nM
- IC50 (DB): 19.4 nM
- IC50 (KYSE-410): 6.21 nM
- IC50 (KYSE-70 cell line): 16.7 nM
- IC50 (A2780): 6.38 nM
- IC50 (NB5): > 64 nM
- IC50 (SW48): 5.8 nM
- IC50 (MKN-28): 4.77 nM
